Assay results published in US8148388B2, “2,4 (4,6) pyrimidine derivatives” (Janssen Pharmaceutica, N.V., priority 2004, dated 2012).

Columns and labels:
Assay type in all cases: biochemical
EGFR-kinase domain = target: T1, EGFR-kinase domain (Homo sapiens, UniProt P00533); test: In vitro inhibition of EGFR (Flash Plate assay); details: full dose response 1.10^−6M to 1.10^−10M, read-out: C12 EGFR flash Score
T1 construct: 0.5 μg EGFR-kinase domain/well
Description: The in vitro inhibition of EGFR was assessed using either the Flash Plate technology or the glass-fiber filter technology as described by Davies, S. P. et al., Biochem J. (2000), 351; p. 95-105. The Flash Plate technology is generally described by B. A. Brown et al. in High Throughput Screening (1997), p. 317-328. Editor(s): Devlin, John P. Publisher: Dekker, New York, N.Y.
In the Flash Plate EGFR kinase reaction assay, a kinase substrate consisting of biotinylated poly(L-glutamic acid-L-tyrosine) (poly(GT)biotin), is incubated with the aforementioned protein in the presence of (^33P) radiolabeled ATP. (^33P) phosphorylation of the substrate is subsequently measured as light energy emitted using a streptavidin-coated Flash Plate (PerkinElmer Life Sciences) by trapping and quantifying the binding of the biotin tagged and radiolabeled substrate.
The EGFR kinase reaction is performed at 30° C. for 60 minutes in a 96-well microtiter FlashPlate (PerkinElmer Life Sciences). For each of the tested compounds a full dose response 1.10^−6M to 1.10^−10M has been performed. IRESSA® and Tarceva™ (erlotinib) were used as reference compounds. The 100 μl reaction volume contains 54.5 mM TrisHCl pH 8.0, 10 mM MgCl2, 100 μM Na3VO4, 5.0 μM unlabeled ATP, 1 mM DTT, 0.009% BSA, 0.8 μCi AT^33P, 0.35 μg/well poly(GT)biotin and 0.5 μg EGFR-kinase domain/well.
The reaction is stopped by aspirating the reaction mixture and washing the plate 3× with 200 μl wash/stop buffer (PBS+100 mM EDTA). After the final wash step 200 μl of wash/stop buffer was added to each well and the amount of phosphorylated (^33P) Poly(GT)biotin determined by counting (30 sec/well) in a microtiterplate scintillation counter.

Flt3 (h) = Flt3 (h) (Homo sapiens, UniProt P36888); test: Flt3 human kinase assay (glass-fiber filter); details: test concentration of 10^−6M; read-out: C6 score (inhibition of Flt3 human)
Sequence of Flt3 (h) (P36888 27-993): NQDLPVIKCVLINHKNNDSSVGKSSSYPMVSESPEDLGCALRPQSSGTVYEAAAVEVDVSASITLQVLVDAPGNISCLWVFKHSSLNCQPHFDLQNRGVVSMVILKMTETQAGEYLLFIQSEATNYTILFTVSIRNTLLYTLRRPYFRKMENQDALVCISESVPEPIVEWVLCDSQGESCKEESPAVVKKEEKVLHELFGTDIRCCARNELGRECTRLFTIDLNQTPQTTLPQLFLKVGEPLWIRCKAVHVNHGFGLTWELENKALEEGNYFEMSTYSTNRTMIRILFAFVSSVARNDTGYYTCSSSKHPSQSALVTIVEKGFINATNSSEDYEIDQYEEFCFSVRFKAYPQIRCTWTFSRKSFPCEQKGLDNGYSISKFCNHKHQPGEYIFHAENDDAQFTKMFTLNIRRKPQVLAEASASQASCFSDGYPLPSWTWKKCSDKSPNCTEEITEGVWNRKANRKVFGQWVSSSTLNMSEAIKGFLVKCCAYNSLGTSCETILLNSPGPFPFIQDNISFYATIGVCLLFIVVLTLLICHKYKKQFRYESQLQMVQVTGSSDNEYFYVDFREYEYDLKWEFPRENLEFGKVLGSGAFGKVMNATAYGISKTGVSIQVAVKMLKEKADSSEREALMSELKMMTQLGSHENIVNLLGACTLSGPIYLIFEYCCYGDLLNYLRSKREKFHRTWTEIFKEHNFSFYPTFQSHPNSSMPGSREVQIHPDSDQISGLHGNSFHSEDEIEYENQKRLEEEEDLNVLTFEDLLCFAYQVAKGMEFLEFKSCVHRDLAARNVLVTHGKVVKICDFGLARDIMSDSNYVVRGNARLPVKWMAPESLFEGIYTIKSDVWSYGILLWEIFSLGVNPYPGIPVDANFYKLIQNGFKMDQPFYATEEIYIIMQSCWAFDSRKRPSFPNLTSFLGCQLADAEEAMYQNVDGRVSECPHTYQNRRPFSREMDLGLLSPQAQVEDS
Description: (§1) The in vitro inhibition of a panel of kinases was assessed using either the glass-fiber filter technology as described by Davies, S. P. et al., Biochem J. (2000), 351; p. 95-105.
(§2) In the glass-fiber filter technology the activity of the kinase of interest is measured using an appropriate substrate that is incubated with the aforementioned kinase protein in the presence of (^33P) radiolabeled ATP. (^33P) Phosphorylation of the substrate is subsequently measured as radioactivity bound on a glass fiber-filter.
(§3) All kinases are pre-diluted to a 10× working concentration prior to addition into the assay. The composition of the dilution buffer for each kinase is detailed below.
(§4) In a final reaction volume of 25 μl, Flt3 (h) (5-10 mU) is incubated with 8 mM MOPS pH 7.0, 0.2 mM EDTA, 50 μM […], 10 mM MgAcetate and [γ-^33P-ATP] (specific activity approx. 500 cpm/pmol, concentration as required). The reaction is initiated by the addition of the MgATP mix. After incubation for 40 minutes at room temperature, the reaction is stopped by the addition of 5 μl of a 3% phosphoric acid solution. 10 μl of the reaction is then spotted onto a P30 filtermat and washed three times for 5 minutes in 75 mM phosphoric acid and once in methanol prior to drying and scintillation counting.

Fms (h) = Fms (h) (Homo sapiens, UniProt P07333); test: Fms human kinase assay (glass-fiber filter); details: test concentration of 10^−6M; read-out: C7 score (inhibition of Fms human)
Sequence of Fms (h) (P07333 20-972): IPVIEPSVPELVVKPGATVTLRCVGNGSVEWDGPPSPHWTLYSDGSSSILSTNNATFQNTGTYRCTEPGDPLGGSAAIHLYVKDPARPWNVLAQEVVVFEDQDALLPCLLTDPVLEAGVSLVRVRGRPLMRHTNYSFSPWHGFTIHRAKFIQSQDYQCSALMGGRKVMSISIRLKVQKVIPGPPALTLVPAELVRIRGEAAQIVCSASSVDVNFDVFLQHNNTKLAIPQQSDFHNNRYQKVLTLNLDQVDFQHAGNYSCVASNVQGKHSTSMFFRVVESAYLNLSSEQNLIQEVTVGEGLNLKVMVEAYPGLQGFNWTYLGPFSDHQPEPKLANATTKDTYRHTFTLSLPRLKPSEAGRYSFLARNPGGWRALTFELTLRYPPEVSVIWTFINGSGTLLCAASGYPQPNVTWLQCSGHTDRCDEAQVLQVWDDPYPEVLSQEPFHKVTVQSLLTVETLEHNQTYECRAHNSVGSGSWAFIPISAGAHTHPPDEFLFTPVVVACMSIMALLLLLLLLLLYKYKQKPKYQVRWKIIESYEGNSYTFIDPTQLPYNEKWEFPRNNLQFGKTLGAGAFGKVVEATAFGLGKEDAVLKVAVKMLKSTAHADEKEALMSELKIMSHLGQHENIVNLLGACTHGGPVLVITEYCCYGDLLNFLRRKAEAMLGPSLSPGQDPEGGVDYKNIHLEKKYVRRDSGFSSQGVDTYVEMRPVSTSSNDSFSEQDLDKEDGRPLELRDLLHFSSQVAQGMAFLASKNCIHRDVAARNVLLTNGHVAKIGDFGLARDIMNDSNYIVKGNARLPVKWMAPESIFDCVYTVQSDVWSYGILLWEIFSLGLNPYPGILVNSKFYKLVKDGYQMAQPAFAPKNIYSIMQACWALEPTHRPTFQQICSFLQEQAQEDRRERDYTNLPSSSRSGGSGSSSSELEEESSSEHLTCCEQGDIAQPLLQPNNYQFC
Description: as §1, §2, §3
as §4, with “μl, Fms” for “μl, Flt3”, “EDTA, 250” for “EDTA, 50”

Yes (h) = Yes (h) (Homo sapiens, UniProt P07947); test: Yes human kinase assay (glass-fiber filter); details: test concentration of 10^−6M; read-out: C11 score (inhibition of Yes human)
Sequence of Yes (h) (P07947 whole entry): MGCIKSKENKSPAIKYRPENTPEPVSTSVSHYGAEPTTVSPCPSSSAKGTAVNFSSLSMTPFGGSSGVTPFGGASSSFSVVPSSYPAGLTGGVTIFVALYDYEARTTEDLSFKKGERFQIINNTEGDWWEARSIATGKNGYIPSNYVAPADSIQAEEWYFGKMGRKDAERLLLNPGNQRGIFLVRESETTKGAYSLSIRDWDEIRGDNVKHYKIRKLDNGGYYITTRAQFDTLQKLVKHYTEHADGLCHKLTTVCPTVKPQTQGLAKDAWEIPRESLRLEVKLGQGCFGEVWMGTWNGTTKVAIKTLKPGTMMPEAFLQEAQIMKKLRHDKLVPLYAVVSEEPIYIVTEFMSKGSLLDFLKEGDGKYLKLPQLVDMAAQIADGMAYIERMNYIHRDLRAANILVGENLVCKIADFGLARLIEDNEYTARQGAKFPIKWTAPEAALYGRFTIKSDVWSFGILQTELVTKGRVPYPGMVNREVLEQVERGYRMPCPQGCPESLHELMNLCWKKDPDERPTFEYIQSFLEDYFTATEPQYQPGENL
Description: as §2, §3
In a final reaction volume of 25 μl, Yes (h) (5-10 mU) is incubated with 8 mM MOPS pH 7.0, 0.2 mM EDTA, 0.1 mg/ml poly(Glu, Tyr) 4:1, 10 mM MgAcetate and [γ-^33P-ATP] (specific activity approx. […], concentration as required). The reaction is initiated by the addition of the MgATP mix. After incubation for 40 minutes at room temperature, the reaction is stopped by the addition of 5 μl of a 3% phosphoric acid solution. 10 μl of the reaction is then spotted onto a Filtermat A and washed three times for 5 minutes in 75 mM phosphoric acid and once in methanol prior to drying and scintillation counting.

Lck (h) = Lck (h) (Homo sapiens, UniProt P06239); test: Lck human kinase assay (glass-fiber filter); details: test concentration of 10^−6M; read-out: C9 score (inhibition of Lck human)
Sequence of Lck (h) (P06239 whole entry): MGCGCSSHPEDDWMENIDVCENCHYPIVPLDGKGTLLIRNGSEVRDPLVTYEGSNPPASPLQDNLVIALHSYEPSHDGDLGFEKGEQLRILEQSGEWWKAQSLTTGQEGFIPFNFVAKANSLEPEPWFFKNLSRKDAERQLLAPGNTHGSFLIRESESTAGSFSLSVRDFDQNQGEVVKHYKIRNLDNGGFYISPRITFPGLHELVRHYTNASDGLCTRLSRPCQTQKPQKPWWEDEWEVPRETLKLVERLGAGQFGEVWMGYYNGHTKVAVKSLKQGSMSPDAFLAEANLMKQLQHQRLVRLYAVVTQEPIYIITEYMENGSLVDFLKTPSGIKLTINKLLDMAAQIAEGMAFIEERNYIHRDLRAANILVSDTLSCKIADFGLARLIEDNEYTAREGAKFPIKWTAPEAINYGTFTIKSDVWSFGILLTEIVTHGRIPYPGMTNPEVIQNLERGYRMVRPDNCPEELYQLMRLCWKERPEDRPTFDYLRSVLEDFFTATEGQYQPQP
Description: (§5) The in vitro inhibition of a panel of kinases was assessed using either the glass-fiber filter technology as described by Davies, S. P. et al., Biochem J. […] In the glass-fiber filter technology the activity of the kinase of interest is measured using an appropriate substrate that is incubated with the aforementioned kinase protein in the presence of (^33P) radiolabeled ATP. (^33P) Phosphorylation of the substrate is subsequently measured as radioactivity bound on a glass fiber-filter. All kinases are pre-diluted to a 10× working concentration prior to addition into the assay. The composition of the dilution buffer for each kinase is detailed below. [table] […] The reaction is initiated by the addition of the MgATP mix. […] 10 μl of the reaction is then spotted onto a P30 filtermat and washed three times for 5 minutes in 75 mM phosphoric acid and once in methanol prior to drying and scintillation counting.

cSRC (h) = cSRC (h) (Homo sapiens, UniProt P12931); test: cSRC human kinase assay (glass-fiber filter); details: test concentration of 10^−6M; read-out: C3 score (inhibition of cSRC human)
Sequence of cSRC (h) (P12931 whole entry): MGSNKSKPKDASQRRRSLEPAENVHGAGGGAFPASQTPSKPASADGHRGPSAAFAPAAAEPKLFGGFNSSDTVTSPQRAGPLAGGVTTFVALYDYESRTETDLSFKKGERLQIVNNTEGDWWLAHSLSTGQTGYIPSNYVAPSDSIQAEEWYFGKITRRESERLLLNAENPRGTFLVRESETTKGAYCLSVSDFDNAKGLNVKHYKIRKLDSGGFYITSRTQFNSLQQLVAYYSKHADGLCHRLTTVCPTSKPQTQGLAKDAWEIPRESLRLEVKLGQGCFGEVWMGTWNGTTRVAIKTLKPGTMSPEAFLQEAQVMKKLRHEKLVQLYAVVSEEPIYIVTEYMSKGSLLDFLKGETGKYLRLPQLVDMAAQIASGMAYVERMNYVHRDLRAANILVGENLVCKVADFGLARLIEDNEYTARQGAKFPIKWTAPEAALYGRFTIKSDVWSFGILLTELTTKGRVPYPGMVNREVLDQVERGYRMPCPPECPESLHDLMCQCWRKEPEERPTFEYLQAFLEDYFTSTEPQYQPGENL
Description: as §5, with “below.” for “below. [table]”

Abl (h) = Abl (h) (Homo sapiens, UniProt P00519); test: Abl human kinase assay (glass-fiber filter); details: test concentration of 10^−6M; read-out: C1 score (inhibition of Abl human)
Sequence of Abl (h) (P00519 whole entry): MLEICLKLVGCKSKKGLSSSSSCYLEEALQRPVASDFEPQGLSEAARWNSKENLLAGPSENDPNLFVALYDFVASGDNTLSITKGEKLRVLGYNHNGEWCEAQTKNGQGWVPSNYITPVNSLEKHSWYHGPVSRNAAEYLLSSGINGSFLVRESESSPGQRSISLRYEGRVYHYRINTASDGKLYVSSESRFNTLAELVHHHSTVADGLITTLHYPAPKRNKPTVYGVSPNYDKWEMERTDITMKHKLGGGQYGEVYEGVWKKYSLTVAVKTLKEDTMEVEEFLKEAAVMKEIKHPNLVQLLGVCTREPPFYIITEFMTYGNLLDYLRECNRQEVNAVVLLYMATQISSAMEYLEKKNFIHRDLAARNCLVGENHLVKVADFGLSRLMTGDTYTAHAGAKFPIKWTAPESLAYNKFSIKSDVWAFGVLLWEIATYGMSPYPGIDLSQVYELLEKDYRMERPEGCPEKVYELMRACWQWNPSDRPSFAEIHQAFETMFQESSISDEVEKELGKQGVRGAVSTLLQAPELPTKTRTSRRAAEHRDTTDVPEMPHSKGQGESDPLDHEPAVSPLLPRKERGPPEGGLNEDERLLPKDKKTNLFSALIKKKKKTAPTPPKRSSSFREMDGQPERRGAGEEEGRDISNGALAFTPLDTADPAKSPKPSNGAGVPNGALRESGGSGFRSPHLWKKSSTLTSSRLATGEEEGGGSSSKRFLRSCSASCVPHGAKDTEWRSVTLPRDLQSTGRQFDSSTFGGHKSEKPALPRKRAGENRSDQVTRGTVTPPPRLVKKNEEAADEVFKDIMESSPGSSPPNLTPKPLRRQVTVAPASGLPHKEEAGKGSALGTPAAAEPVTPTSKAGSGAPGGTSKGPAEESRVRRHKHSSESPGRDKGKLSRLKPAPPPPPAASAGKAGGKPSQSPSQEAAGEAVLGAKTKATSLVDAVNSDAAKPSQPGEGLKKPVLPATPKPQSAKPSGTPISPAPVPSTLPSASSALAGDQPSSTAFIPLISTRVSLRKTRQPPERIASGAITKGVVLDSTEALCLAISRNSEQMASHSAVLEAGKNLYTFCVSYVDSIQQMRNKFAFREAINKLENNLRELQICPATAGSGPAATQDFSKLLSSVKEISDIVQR
Description: as §2, §3
(specific activity approx. 500 cpm/pmol, concentration as required). The reaction is initiated by the addition of the MgATP mix. After incubation for 40 minutes at room temperature, the reaction is stopped by the addition of 5 μl of a 3% phosphoric acid solution. 10 μl of the reaction is then spotted onto a P30 filtermat and washed three times for 5 minutes in 75 mM phosphoric acid and once in methanol prior to drying and scintillation counting.

Lyn (h) = Lyn (h) (Homo sapiens, UniProt P07948); test: Lyn human kinase assay (glass-fiber filter); details: test concentration of 10^−6M; read-out: C10 score (inhibition of Lyn human)
Description: as §2, §3
In a final reaction volume of […] (h) (5-10 mU) is incubated with 50 mM Tris pH 7.5, 0.1 mM EGTA, 0.1 mM Na3VO4, 0.1% O-mercaptoethanol, 0.1 mg/ml poly(Glu, Tyr) 4:1, 10 mM MgAcetate and [γ-^33P-ATP] (specific activity approx. 500 cpm/pmol, concentration as required). The reaction is initiated by the addition of the MgATP mix. After incubation for 40 minutes at room temperature, the reaction is stopped by the addition of 5 μl of a 3% phosphoric acid solution. 10 μl of the reaction is then spotted onto a Filtennat A and washed three times for 5 minutes in 75 mM phosphoric acid and once in methanol prior to drying and scintillation counting.

T1 sequence (P00533 712-979 limits assumed): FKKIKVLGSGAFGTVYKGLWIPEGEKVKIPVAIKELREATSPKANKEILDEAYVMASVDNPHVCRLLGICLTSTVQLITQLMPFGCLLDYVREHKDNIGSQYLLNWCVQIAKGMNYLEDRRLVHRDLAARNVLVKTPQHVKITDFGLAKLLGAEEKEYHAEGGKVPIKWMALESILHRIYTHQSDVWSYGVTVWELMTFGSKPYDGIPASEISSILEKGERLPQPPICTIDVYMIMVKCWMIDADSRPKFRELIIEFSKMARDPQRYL

CCN1CC(=O)NCCOc2cc(ccc2OC)Nc2cc(ncn2)Nc2ccc(Cl)c(c2)C1 [Compound 183]
IC50 (EGFR-kinase domain): 1000 to 10000 nM

COc1ccc2cc1OCCNC(=O)CCN1CCC(CC1)N(C)Cc1cc(ccc1Cl)Nc1cc(ncn1)N2 [Compound 127]
IC50 (EGFR-kinase domain): 1000 to 10000 nM

COc1ccc2cc1OCCNC(=O)C1CN(CCC1O)Cc1cc(ccc1Cl)Nc1cc(ncn1)N2 (stereo not shown) [Compound 182]
IC50 (EGFR-kinase domain): 1000 to 10000 nM

O=C1CCCCCCNC(=O)c2cccc(c2)Nc2cc(ncn2)Nc2cccc(c2)CN1 [Compound 57, 2,4,6,8,15,23-hexaazatetracyclo[23.3.1.1~3,7~.1~9,13~]hentriaconta-1(29),3,5,7(31),9,11,13(30),25,27-nonaene-14,22-dione]
inhibition at 1 µM (Flt3 (h)): 30 to 60%

COc1ccc2cc1OCCNC(=O)CC(CC(C)C)NC(=O)COc1ccc(cc1)Nc1cc(ncn1)N2 (stereo not shown) [Compound 141]
IC50 (EGFR-kinase domain): 1000 to 10000 nM

CN1Cc2cccc(c2)Nc2cc(ncn2)Nc2ccccc2OCCCCCNC(=O)CCN2CCC1CC2 [Compound 186]
IC50 (EGFR-kinase domain): 1000 to 10000 nM

COc1ccc2cc1OCCNC(=O)CCCN(C)Cc1cc(ccc1Cl)Nc1cc(ncn1)N2 [Compound 111]
IC50 (EGFR-kinase domain): 1000 to 10000 nM

CC(C)C1NC(=O)c2cccc(c2)Nc2cc(ncn2)Nc2cccc(c2)CNC(=O)CNC1=O (stereo not shown) [Compound 60]
inhibition at 1 µM (Fms (h)): 10 to 30% | inhibition at 1 µM (Yes (h)): 10 to 30%

CCN1CCC(=O)NCCOc2cc(ccc2OC)Nc2cc(ncn2)Nc2ccc(Cl)c(c2)C1 [Compound 113]
IC50 (EGFR-kinase domain): 1000 to 10000 nM

CCN1CCNC(=O)C(CC2CCCCC2)NC(=O)COc2ccc(cc2)Nc2cc(ncn2)Nc2cccc(c2)C1 (stereo not shown) [Compound 135]
IC50 (EGFR-kinase domain): 1000 to 10000 nM

CCN1CC(=O)NCCCCCOc2ccccc2Nc2cc(ncn2)Nc2cccc(c2)C1 [Compound 190]
IC50 (EGFR-kinase domain): 1000 to 10000 nM

O=C1CNC(=O)CNC(=O)c2cccc(c2)Nc2cc(ncn2)Nc2cccc(c2)CN1 [Compound 61]
inhibition at 1 µM (Fms (h)): 60 to 80% | inhibition at 1 µM (Yes (h)): 10 to 30%

CN1Cc2cccc(c2)Nc2cc(ncn2)Nc2cccc(c2)OCCCCNC(=O)CCN2CCC1CC2 [Compound 196]
IC50 (EGFR-kinase domain): 1000 to 10000 nM

O=C1COc2cccc(c2)Nc2cc(ncn2)Nc2cccc(c2)OCCCCCNC(=O)C(Cc2cccnc2)N1 (stereo not shown) [Compound 180]
IC50 (EGFR-kinase domain): 1000 to 10000 nM

COc1ccc2cc1OCCNC(=O)C1CCCN(C1)C(=O)COc1ccc(cc1)Nc1cc(ncn1)N2 (stereo not shown) [Compound 140]
IC50 (EGFR-kinase domain): 1000 to 10000 nM

COc1ccc2cc1OCCNC(=O)C1CCCCN1Cc1cc(ccc1Cl)Nc1cc(ncn1)N2 (racemic) [Compound 145]
IC50 (EGFR-kinase domain): 1000 to 10000 nM

O=C1COc2cccc(c2)Nc2nccc(n2)Nc2cccc(c2)OCCCN1 [Compound 29, 14,21-dioxa-2,4,8,18,28-pentaazatetracyclo[20.3.1.1~3,7~.1~9,13~]octacosa-1(26),3,5,7(28),9,11,13(27),22,24-nonaen-19-one]
inhibition at 1 µM (Lck (h)): 30 to 60% | inhibition at 1 µM (Fms (h)): 10 to 30% | inhibition at 1 µM (cSRC (h)): 10 to 30% | inhibition at 1 µM (Yes (h)): 60 to 80% | inhibition at 1 µM (Flt3 (h)): > 80%

O=C1NCc2cccc(c2)Nc2ccnc(n2)Nc2cccc1c2 [Compound 24, 2,4,8,15,23-pentaazatetracyclo[15.3.1.1~3,7~.1~9,13~]tricosa-1(21),3,5,7(23),9,11,13(22),17,19-nonaen-16-one]
inhibition at 1 µM (Lck (h)): 30 to 60% | inhibition at 1 µM (Fms (h)): 10 to 30% | inhibition at 1 µM (cSRC (h)): 10 to 30% | inhibition at 1 µM (Yes (h)): 10 to 30% | inhibition at 1 µM (Abl (h)): 30 to 60% | inhibition at 1 µM (Flt3 (h)): 60 to 80% | inhibition at 1 µM (Lyn (h)): 10 to 30%

COCC1NC(=O)COc2cccc(c2)Nc2cc(ncn2)Nc2cccc(c2)OCCCCCNC1=O (stereo not shown) [Compound 179]
IC50 (EGFR-kinase domain): 1000 to 10000 nM

COc1ccc2cc1OCCNC(=O)C(CCSC)NC(=O)COc1cccc(c1)Nc1cc(ncn1)N2 (stereo not shown) [Compound 173]
IC50 (EGFR-kinase domain): 1000 to 10000 nM

CCN1CCNC(=O)C2CN(CCO2)C(=O)COc2ccc(cc2)Nc2cc(ncn2)Nc2cccc(c2)C1 (stereo not shown) [Compound 136]
IC50 (EGFR-kinase domain): < 1000 nM

O=C1CCN(CCN2CCOCC2)Cc2cccc(c2)Nc2cc(ncn2)Nc2cccc(c2)OCCCCN1 [Compound 195]
IC50 (EGFR-kinase domain): 1000 to 10000 nM
